According to patent US20080108694A1, “Novel Macrocycles and Uses Thereof” (priority 2003, published 2008):
≈ marks a conversion by molar mass, not a printed value. Read-outs that look alike come from different tables or passages of the source. Each block holds one molecule with its values, some of them ahead of it.

Key:
[1] = rcm bond
[2] = system: HER2; assay: Her2 degradation in drug-treated MCF-7 cells by immunoblotting; assay type: cell-based, human; details: for concentration at which Her2 is degraded: P85 control
Protocol: To confirm that the cytotoxicity was indeed due to the inhibition of Hsp90, we set out to investigate the degradation of Her2, one of the most sensitive client proteins of this chaperone. The expression levels of Her2 of drug-treated MCF-7 cells were analyzed using immunoblotting (FIG. 31). P85, used as a control, is not a client protein of Hsp90. As expected, the growth inhibition activities of the synthetic active analogues are reflected in their capacity to degrade Her2. […] Nonchlorinated difluoro compound 38 degraded Her2 at 1 μM, and its chlorinated counterpart 31, at 10 μM.
Immunoblotting. For immunoblotting, cells in culture were washed and harvested in PBS, and then lysed in NP-40 buffer (50 mMTris, pH 7.5, 1% Nonidet P-40, 150 mM NaCl, 2.5 mM Na3VO4, 10 mM phenylmethylsulfonyl fluoride, and 10 μM each leupeptin, aprotinin, and soybean trypsin inhibitor). Cell lysates were cleared by centrifugation at 14,000×g for 10 minutes, and supernatants were collected as the experimental samples. Protein concentrations were determined using BCA reagent (Pierce Chemical Co., Rockford, Ill.). Lysates were added to sample buffer [0.3125 M Tris-HCl (pH 6.8), 10% SDS, 50% glycerol, and 77.5 mg/ml DTT], and equal amounts of protein were resolved by 7% SDS-PAGE and transferred to nitrocellulose membranes. Blots were blocked in 5% nonfat milk in Tris-buffered saline [0.1% Tween 20, 10 mM Tris (pH 7.4), and 150 mM NaCl] and subsequently probed with antibody (HER2 rabbit polyclonal IgG, Santa Cruz Biotechnology, Santa Cruz, Calif.; and PI3 kinase P85, Upstate Cell Signaling Solutions, Lake Placid, N.Y.). After incubation with horseradish peroxidase-conjugated secondary antibodies, proteins were visualized by chemiluminescence using the ECL detection reagents (Amersham Corp., Piscataway, N.J.). To prepare lysate from xenograft tumors, tumor tissue was homogenized in 2% SDS lysis buffer for 30 s then processed as above.

[3] = system: MCF7; assay: Alamar blue proliferation assay, growth inhibition of MCF7 breast cancer cells; assay type: cell-based, human; details: for IC50: Homo sapiens
Description: Biological Evaluation of Cycloproparadicicol Analogues. As discussed earlier, it appears that the inhibition of Hsp90 induces the proteasomal degradation of various oncogenic proteins, thereby leading to inhibition of tumor cell growth. We hoped to evaluate our synthetic analogues for their growth inhibition activity against MCF breast cancer cells. […] Further modifications of 27α, however, decreased its potency.
Cell Culture. The human cancer line MCF7 was obtained from American Type Culture Collection (Manassas, Va., USA) and maintained in 1:1 mixture of DME:F12 supplemented with 10% heat-inactivated fetal bovine serum, 2 mM glutamine, 50 units/ml of penicillin and streptomycin, and incubated in a humidified 5% CO2/air atmosphere at 37° C. For the Alamar blue proliferation assay, 2×10^3 cells were plated in 96-well plates. Twenty four hours later, cells were treated with the compound for 72 or 120 hours. On day 3 or 5, Alamar Blue viability assay (AccuMe Westlake, Ohio) was performed as described elsewhere (White, M. J.; DiCaprio, M. J Greenberg, D. A. J. Neurosci. Methods 1996, 70, 195-200; incorporated herein by reference). IC50s were calculated as the doses of the compound required to inhibit cell growth by 50% of control values.

[4] = system: MCF7 cells; assay: Growth of MCF7 cells (HER2 overexpressed, Rb positive) treated with radicicol and analogues; assay type: cell-based, human
[5] = system: small cell lung cancer cell line with defective Rb function; assay: Inhibition of small cell lung cancer cell line with defective Rb function; assay type: cell-based, human
Protocol: (§1) Growth assays were performed by seeding 10000 cells (MCF7, BT474 or N417) per well in 6-welldishes and incubating for 24 h before drug treatment. Drugs or vehicle were administered as outlined for each experiment, and cells were incubated for the time periods depicted and then the number quantified by a Coulter counter.

[6] = system: breast cancer cell with wild type Rb; assay: Inhibition of breast cancer cell with wild type Rb; assay type: cell-based, human
Protocol: as §1

[7] = cited from earlier work
[8] = system: Hsp90; details: cited from earlier work
[9] = system: HER2; assay: Reduction of HER2 in MCF7 and BT474 cells (protein assay, gels); assay type: cell-based, human; details: tested at 0.5 μM through 5 μM
Protocol: As depicted in FIGS. 17 and 18, four analogues have been tested for their ability to reduce HER2 in MCF7 and BT474 cells. […] Furthermore, while the vinyl epoxide, a reactive moiety, may be responsible for undesired cytotoxicity, the cyclopropane is far more stabile to non-productive cellular nucleophiles.
The human cancer cell lines MCF7, BT474 and N417 were obtained from the American Type Culture Collection (Manassas, Va., USA) and maintained in a 1:1 mixture of DME:F12 supplemented with 2 mM glutamine, 50 U/mL penicillin, 50 U/mL streptomycin and 5% heat inactivated fetal bovie serum (Gemini Bioproducts) and incubated at 37° C. in 5% CO2.
Cells were grown to 60-70% confluence and exposed to drugs or DMSO vehicle for the indicated time periods. Lysates were prepared using 50 mM Tris pH 7.4, 2% SDS and 10% glycerol lysis buffer. Protein concentration was determined using the BCA kit (Pierce Chemical Co.) according to the manufacturer's instructions. Clarified protein lysates (20-50 μg) were electrophoretically resolved on denaturing SDS-PAGE, transferred to nitrocellulose and probed with the following primary antibodies: anti-Her2 (C-18).

[10] = system: KB cells; details: cited from earlier work
[11] = system: P. falciparum; details: cited from earlier work
[12] = MCF7 cells, 72 h treatment, read-out: IC50 (pM) Values of Cycloproparadicicol Analogues and Aigialomycin D
[13] = MCF breast cancer cells, 72 h treatment
[14] = MCF7, MCF breast cancer cells, 72 h treatment, read-out: IC50 value

Molecule: C[C@H]1CC=C[C@H]2OC(C)(C)O[C@H]2CCC(O[Si](C)(C)C(C)(C)C)C[C]23[Co]4[Co]2[C]43C(=O)O1.[C-]#[O+].[C-]#[O+].[C-]#[O+].[C-]#[O+].[C-]#[O+].[C-]#[O+] (some centres unmarked)
ring closure, yield of all isomers ([1]; from C=CC[C@H](C)OC(=O)[C]12[Co]3[Co]1[C]32CC(CC[C@@H]1OC(C)(C)O[C@@H]1C=C)O[Si](C)(C)C(C)(C)C.[C-]#[O+].[C-]#[O+].[C-]#[O+].[C-]#[O+].[C-]#[O+].[C-]#[O+]): 80%

Molecule: C[C@@H]1C[C@H]2O[C@@H]2/C=C\C=C\C(=O)Cc2c(Cl)c(O)cc(O)c2C(=O)O1 [radicicol, reference compound]
efficacy in side by side experiment with radicicol [4]: demonstrated efficacy
inhibition of small cell lung cancer cell line with defective Rb function [5]: potent inhibitors
inhibition of breast cancer cell with wild type Rb [6]: potent inhibitors
activity in in vivo (animal) models [7]: ineffective

Molecule: C[C@@H]1C[C@H]2C[C@@H]2C=C/C=C/C(O[Si](C)(C)C(C)(C)C)CC#CC(=O)O1 (some centres unmarked)
ring closure, yield of all isomers ([1]; from C=C[C@H]1C[C@@H]1C[C@@H](C)OC(=O)[C]12[Co]3[Co]1[C]32CC(/C=C/C=C/C)O[Si](C)(C)C(C)(C)C.[C-]#[O+].[C-]#[O+].[C-]#[O+].[C-]#[O+].[C-]#[O+].[C-]#[O+], 2 steps): 51%

Molecule: C[C@@H]1C[C@@H]2[C@@H](/C=C\C=C\C(=O)Cc3cc(O)cc(O)c3C(=O)O1)C2(F)F [compound 38, Difluorocyclopropamonocilin]
concentration at which Her2 is degraded [2]: 1 µM
IC50 [3, 12]: 3e+06 pM

Molecule: C[C@@H]1C[C@H]2C[C@@H]2C=C/C=C/C(O[Si](C)(C)C(C)(C)C)C[C]23[Co]4[Co]2[C]43C(=O)O1.[C-]#[O+].[C-]#[O+].[C-]#[O+].[C-]#[O+].[C-]#[O+].[C-]#[O+] (some centres unmarked)
ring closure, yield of all isomers ([1]; from C=C[C@H]1C[C@@H]1C[C@@H](C)OC(=O)[C]12[Co]3[Co]1[C]32CC(/C=C/C=C/C)O[Si](C)(C)C(C)(C)C.[C-]#[O+].[C-]#[O+].[C-]#[O+].[C-]#[O+].[C-]#[O+].[C-]#[O+]): 57%

Molecule: 17-alkylaminogeldanamycin [17-AGG, reference compound]
potency in cells with wild type Rb versus cells with defective Rb function [5]: much more potent against cells with wild type Rb than in cells with defective Rb function

Molecule: C[C@H]1C/C=C/[C@@H](O)[C@@H](O)CC/C=C/c2cc(O)cc(O)c2C(=O)O1 [compound 46, Aigialomycin D]
IC50 against KB cells (antitumor activity) [10]: 3.0 µg/mL (≈ 8.97 µM)
concentration at which Her2 is degraded [2]: > 10 µM
IC50 ([3]; MCF7, 72 h, read-out: IC50 (pM) Values of Cycloproparadicicol Analogues and Aigialomycin D): > 1e+07 pM
growth inhibition activity [3, 13]: significantly less active than the cycloproparadicicol derivatives
IC50 against P. falciparum (antimalarial activity) [11]: 6.6 µg/mL (≈ 19.7 µM)

Molecule: CC(C)(C)[Si](C)(C)OC1/C=C/C=CCCCCOC(=O)[C]23[Co]4[Co]2[C]43C1.[C-]#[O+].[C-]#[O+].[C-]#[O+].[C-]#[O+].[C-]#[O+].[C-]#[O+] (centres unmarked)
ring closure, yield of all isomers ([1]; from C=CCCCCOC(=O)[C]12[Co]3[Co]1[C]32CC(/C=C/C=C/C)O[Si](C)(C)C(C)(C)C.[C-]#[O+].[C-]#[O+].[C-]#[O+].[C-]#[O+].[C-]#[O+].[C-]#[O+]): 71%

Molecule: C[C@@H]1C[C@H]2C[C@@H]2C=C/C=C/C(O[Si](C)(C)C(C)(C)C)CC#CC(=O)N1 (some centres unmarked)
ring closure, yield of all isomers ([1]; from C=C[C@H]1C[C@@H]1C[C@@H](C)NC(=O)C#CCC(/C=C/C=C/C)O[Si](C)(C)C(C)(C)C.[C-]#[O+].[C-]#[O+].[C-]#[O+].[C-]#[O+].[C-]#[O+].[C-]#[O+].[Co].[Co], 2 steps): 60%

Molecule: CO[C@H]1/C=C/C=C\[C@H]2C[C@@H]2C[C@@H](C)OC(=O)c2c(O)cc(O)cc2C1 [29α]
IC50 [3, 12]: > 1e+07 pM
growth inhibition activity [3, 13]: completely inactive

More lines, main results first:

IC50 [3, 12]: 98000 pM
Molecule: C[C@@H]1C[C@H]2C[C@@H]2\C=C/C=C/C(=N\O)Cc2c(Cl)c(O)cc(O)c2C(=O)O1 [(Z)-30]
concentration at which Her2 is degraded [2]: 0.3 µM
potency relative to the corresponding (E)-isomer ([3]; MCF breast cancer cells, 72 h): 3 times

IC50 [3, 12]: > 500000 pM
Molecule: C[C@@H]1C[C@H]2C[C@@H]2/C=C\C=C\[C@@H](O)Cc2cc(O)cc(O)c2C(=O)O1 [27β]
growth inhibition activity [3, 13]: inactive

IC50 [3, 14]: 390000 pM
IC50 [3, 12]: 390000 pM
Molecule: C[C@@H]1C[C@H]2C[C@@H]2/C=C\C=C\[C@H](O)Cc2c(Cl)c(O)cc(O)c2C(=O)O1 [28α]

IC50 [3, 14]: 150000 pM
IC50 [3, 12]: 150000 pM
Molecule: C[C@@H]1C[C@H]2C[C@@H]2/C=C\C=C\[C@H](O)Cc2cc(O)cc(O)c2C(=O)O1 [27α]
concentration at which Her2 is degraded [2]: 0.3 µM

IC50 [3, 12]: 54000 pM
Molecule: C[C@@H]1C[C@H]2C[C@@H]2/C=C\C=C\C(=O)Cc2c(Cl)c(O)cc(O)c2C(=O)O1 [compound 2, Cycloproparadicicol]
concentration at which Her2 is degraded [2]: 0.3 µM
growth inhibition activity [3, 13]: most potent of the new compounds
binds to Hsp90 at [8]: ca. 160 nM
effectiveness in reducing HER2 relative to radicicol [9]: at least as effective, if not better than radicicol
inhibition of small cell lung cancer cell line with defective Rb function [5]: potent inhibitors
potency relative to 17-AGG in small cell lung cancer cell line with defective Rb function [5]: much more potent than 17-AGG
inhibition of breast cancer cell with wild type Rb [6]: potent inhibitors

IC50 [3, 12]: 282000 pM
Molecule: C[C@@H]1C[C@H]2C[C@@H]2\C=C/C=C/C(=N/O)Cc2c(Cl)c(O)cc(O)c2C(=O)O1 [(E)-30]
capacity to degrade Her2 [2]: less effective

IC50 [3, 12]: 1e+07 pM
Molecule: C[C@@H]1C[C@@H]2[C@@H](/C=C\C=C\C(=O)Cc3c(Cl)c(O)cc(O)c3C(=O)O1)C2(F)F [compound 31, Difluorocycloproparadicicol]
concentration at which Her2 is degraded [2]: 10 µM
